Data reported in US20230405151A1, “USE OF IRAK4 MODULATORS FOR GENE THERAPY” (Genzyme Corporation, priority 2022, published 2023).

Tests used:
IRAK4 protein = biological target: T1, IRAK4 protein (Homo sapiens, UniProt Q9NWZ3); assay: AlphaLISA assay of IRAK4 protein levels in cell lysates; format: cell-based; conditions: 16 nM, 80 nM, 400 nM and 2000 nM; AAV.SAN024 MOI 1e5 24 hrs
T1 construct: endogenous in cells; host or cells: primary human monocyte-derived dendritic cells from PBMC donors
T1 sequence (Q9NWZ3 1-460): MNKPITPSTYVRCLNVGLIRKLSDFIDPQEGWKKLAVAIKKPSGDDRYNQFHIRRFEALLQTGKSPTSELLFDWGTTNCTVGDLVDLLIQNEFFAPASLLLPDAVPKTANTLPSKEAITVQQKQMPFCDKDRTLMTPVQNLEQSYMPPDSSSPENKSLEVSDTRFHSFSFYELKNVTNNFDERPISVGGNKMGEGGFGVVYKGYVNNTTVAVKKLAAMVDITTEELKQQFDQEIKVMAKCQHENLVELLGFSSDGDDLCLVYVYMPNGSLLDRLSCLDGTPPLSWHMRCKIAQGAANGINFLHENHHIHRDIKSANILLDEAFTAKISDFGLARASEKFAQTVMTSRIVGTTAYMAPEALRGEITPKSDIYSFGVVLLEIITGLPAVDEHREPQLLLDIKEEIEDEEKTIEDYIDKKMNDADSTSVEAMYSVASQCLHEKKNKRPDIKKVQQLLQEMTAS
Description: AlphaLISA assay. This assay was performed to measure the levels of IRAK4 protein in the cells. The protocol was followed as per manufacturer's recommendation Perkin Elmer (Catalog #AL3117C). Briefly, cells were lysed and 5 μL of lysates were added to Anti-IRAK4 Acceptor Beads and incubated for 30 min at 23° C., then Biotinylated Anti-IRAK4 Antibody was added and incubated for 60 min at 23° C. Finally, SA-donor beads are added and 30 min later plates are read using EnVision-Alpha Reader (615 nm) https://resources.perkinelmer.com/lab-solutions/resources/docs/MAN_AlphaLISA_IRAK4_AL3117.pdf?_gl=1*7jzf5d*_ga*MzQ4MTQ1NzA3LjE2NDY2NzY5MjI.*_ga_W34ZJ1Z1Q1*MTY3NzE5MjAyOS4zLjEuMTY3NzE5MjA2Mi4yNy4wLjA.&_ga=2.178521252.1409175695.1677192029-348145707.1646676922. The same protocol was used to measure phosphorylation levels of NFkB using AlphaLISA SureFire Ultra p-NFκB (Ser536) Assay Kit—High Volume Catalog #ALSU-PNFKB-A-HV.
To determine the activity of PROTAC degrader, human monocytic dendritic cells were treated with different doses of drugs as indicated (16 nM, 80 nM, 400 nM and 2000 nM) and the same cells were infected with AAV.SAN024 at MOI of 1e5 for 24 hrs. Cell lysates were analysed for IRAK4 degradation. No significant difference was observed between the control (untretaed/uninfected) cells as compared to the treated and AAV. SAN024 infected cells but the AAV.

[1] = tested on: C57BL/6J mice injected with AAV (LacZ transgene); assay: In vivo mouse AAV model: intracellular cytokine staining of splenocytes; conditions: chow 30 mg/kg from 15 days prior to AAV; day 21; versus AAV group; N=10
Description: In-vivo mice experiments. C57BL/6J mice were purchased from Jackson Laboratories. 6-8-week male mice were divided into 3 groups—PBS group, AAV group and AAV+IRAK4 group all groups with 10 mice each. Zimlovisertib IRAK4 inhibitor (Synonyms: PF-06650833) Cat. No.: HY-19836 (MedChemExpress) was mixed with mouse chow Catalog #2016, Teklad Global 16% Protein Rodent Diets https://www.inotivco.com/rodent-natural-ingredient-2016-diets at a dose of 30 mg/kg. AAV+IRAK4 group was fed the chow with Zimlovisertib IRAK4 inhibitor 15 days prior to AAV injection whereas PBS and AAV group were fed with mouse chow Catalog #2016, Teklad Global 16% Protein Rodent Diets https://www.inotivco.com/rodent-natural-ingredient-2016-diets. PBS group mice were injected intramuscularly with 100 ul PBS, AAV group was injected intramuscularly with 1e11 vg per quadricep muscle of both legs, 100 ul volume.
Intracellular cytokine staining. Splenocytes were harvested from mouse spleens, and 2 million cells were seeded on a 96-well U-bottom plate. The cells were centrifuged at 2,000 rpm for 5 minutes and then resuspended with 100 μl of the RPMI containing 10% FBS and 1×2-mercaptoethanol. 10 μg/ml concentration of AAVrh32.33 overlapping peptide, AAVrh32.33 LacZ immunodominant peptide, and LacZ immunodominant peptide were prepared in the RPMI1640 containing 10% FBS, 1×2-mercaptoethanol, and 1:500 GolgiStop. For the positive control, 0.10 μg/ml PMA and 2 μg/ml Ionomycin solution were prepared in the RPIM1640 containing 10% FBS, 1×2-mercaptoethanol, and 1:500 GolgiStop. Then, 100 μl of the prepared solution was added to the cells, resulting in a final concentration of 5 μg/ml (or 0.05 μg/ml PMA and 1 μg/ml Ionomycin). The cells were incubated at 37° C. 5% CO2 incubator overnight to stimulate the cells. The next day, the cells were centrifuged at 2,000 rpm for 5 minutes, and then washed with the FACS buffer one time. The cells were stained with an antibody cocktail (1:100 anti-CD4 FITC, 1:100 anti-CD8a PerCP-Cy5.5, 1:100 anti-CD44 Pacific Blue, 1:100 Live/Dead Cell Stain Kit) for 30 minutes at 4° C. […]

| SMILES | IRAK4 levels (IRAK4 degradation) in cell lysates (IRAK4 protein) | Interferon gamma producing activated CD8 T cells, splenocytes stimulated with AAV immunodominant peptide [1] | Interferon gamma producing activated CD8 T cells, splenocytes stimulated with AAV peptide pools [1] | Interferon gamma producing activated CD8 T cells, splenocytes stimulated with LacZ immunodominant peptide [1] |
| --- | --- | --- | --- | --- |
| O=C1CCC(N2C(=O)c3cccc(NCc4cn(CCCNC(=O)c5ccc(-n6cc(NC(=O)c7coc(-c8ccnc(NCC9CC9)c8)n7)c(C(F)(F)F)n6)cc5)cn4)c3C2=O)C(=O)N1 (stereo not shown) [PROTAC IRAK4 degrader-1] | reduction of IRAK4 levels at all doses | – | – | – |
| CC[C@@H]1[C@H](F)C(=O)N[C@@H]1COc1nccc2cc(C(N)=O)c(OC)cc12 [zimlovisertib, 1-[[(2S,3S,4S)-3-Ethyl-4-fluoro-5-oxo-2-pyrrolidinyl]methoxy]-7-methoxy-6-isoquinolinecarboxamide] | – | reduce significantly | reduce significantly | reduce significantly |
